From PMC4746011, “IspH–RPS1 and IspH–UbiA: “Rosetta stone” proteins” (Chemical Science, 2015)
Like-named read-outs stand apart in the source and are kept apart here.

B1: CthIspH–RPS1 (Acetivibrio thermocellus ATCC 27405) (protein)
chain: MEIIVAKSAGFCFGVSNAVKTVNNLLENQKEPIYTYGPIIHNAQVVDLFTSKGVKKIDDIDEAEPNGHIVIRAHGVTPDIYKKISDKGLILEDATCPYVKKIHNLVKEKSEEGYKIIIVGDRNHPEVIGINGWCNNQAYIVDSVDDVEKFPTSDEKVCVVAQTTITNEKWLEVNTALKKKFKNILKFDTICSATSRRQNEAEEIAKNVDMMIIIGGKNSSNTQKLYDICKKHCNLTYKIETSGDLPPVDIKKIKKVGISAGASTPDWVIEEVIKKMSELNKQGMVDILENDGEIDFANAFENSFVRIHAGDTVKGKIIGFNSNEVFVDLGYKADGIIPLEEYTDDPNFNIEKEVKIGEEVEVLVEMVNDGEGNVRLSKRKVDAIKSWDDIVKAYENKTPVNAYVVEVVKGGVIASYKGVRIFVPASQVSDRYVKDLNEFLKRSITVRILELNEKRRKVVGSARVIIEEEKEALANRTWNSMEVGKVFKGTVKSLTDFGAFVDIGGVDGLIHISELSWTRVKHPSEVLKVGDEVEVTVLEFDKEKKKVSLGYRKMEDNPWYKIEEKYKVGDVVKVTVLRFAPFGAFVELEKGVDGLVHISQISSKRLAKVEDALEIGMKVDAKIIEVDGENKKISLSIKEVMPIDPPSSKSESKAKDGSEAKETSANTEEEAEPTEHREDMNVTVEDLVSKTTQS

Legend:
CthIspH–RPS1 [1] = molecular target: T1, CthIspH–RPS1 (Acetivibrio thermocellus (Clostridium thermocellum), UniProt A3DDC0); experiment: CthIspH–RPS1 inhibition assay (methyl viologen method); format: biochemical; as to IC50 against CthIspH–RPS1: 40 nM enzyme, 50 µM HMBPP, 40 µM dithionite
Description: (§1) The CthIspH kinetics and inhibition assays were performed by using the methyl viologen method described previously.[27] […] The reactions were monitored at 606 nm. K m and k cat were fitted by using a Michaelis–Menten relation in Origin 9.1. The extinction coefficient for the methyl viologen radical cation at 606 nm was taken to be 13 700 M^–1 cm^–1.[28]

AaIspH = test system: AaIspH; design: method as in PMID 24481599, PMID 20426416; conditions: Fig. 5a bottom value; read-out: IC50 against AaIspH; cited from earlier work
[2] = test system: IspH from the thermophile Aquifex aeolicus; design: method as in PMID 24481599; conditions: A. aeolicus IspH; cited from earlier work
CthIspH–RPS1 [3] = molecular target: T1, CthIspH–RPS1; experiment: CthIspH–RPS1 Michaelis–Menten kinetics (methyl viologen assay); format: biochemical; conditions: substrate HMBPP, room temperature
Description: as §1
Substrate consumption and product formation were also confirmed by LC-MS (Fig. S3 ^†) and NMR analysis.

[4] = substrate: C/C(=C\COP(=O)(O)OP(=O)(O)O)CO; experiment: purified protein, by the assay type; conditions: other: substrate HMBPP, room temperature
[5] = read-out: IC50 against CthIspH–RPS1

Row | Molecule | IC50 (CthIspH–RPS1 [1]; [5]) [µM] | further results
1 | C#CCOP(=O)(O)OP(=O)(O)O [Compound 4] | 8.8 | 
2 | C#CCCOP(=O)(O)OP(=O)(O)O [Compound 5] | 3.3 | IC50 (AaIspH): 0.45 µM
3 | C#CCCCOP(=O)(O)OP(=O)(O)O [Compound 6] | 47 | 
4 | O=P(O)(O)OP(=O)(O)OCc1cccnc1 [Compound 7] | 150 | 
5 | O=P(O)(O)OP(=O)(O)OCCc1cccnc1 [Compound 8] | 240 | 
6 | O=P(O)(O)OP(=O)(O)OCCCc1cccnc1 [Compound 9] | 490 | 
7 | O=P(O)(O)OP(=O)(O)OCc1ccncc1 [Compound 10] | 120 | 
8 | O=P(O)(O)OP(=O)(O)OCC#CCO [Compound 11] | 92 | 
9 | CC#CCOP(=O)(O)OP(=O)(O)O [Compound 12] | 760 | 
10 | O=P(O)(O)OP(=O)(O)SCC#CCO [Compound 13, 4-Hydroxybut-2-ynyl-S-thiolodiphosphate] |  | IC50 (CthIspH–RPS1 [1]): 3.8 µM; activity against CthIspH–RPS1 (in words) (CthIspH–RPS1 [1]; inhibition of catalytic activity): very active
11 | C/C(=C\COP(=O)(O)OP(=O)(O)O)CO [HMBPP, (E)-1-hydroxy-2-methyl-but-2-enyl 4-diphosphate] |  | Km [2]: 7 µM; kcat [2]: 1.0 s^–1; kcat (CthIspH–RPS1 [3]): 56 min^–1
12 | B1 |  | Km [4]: 15 µM
